Measured values: patent US9181237B2, “Substituted berbines and their synthesis” (MALLINCKRODT LLC, priority 2013, dated 2015)

Legend:
[1] = system: murine melanoma cell line, B16; experiment: B16 cancer cell screening assay: inhibition of lactate dehydrogenase (LDH) release; format: cell-based; settings: B16 cells exposed to several concentrations
Procedure: (§1) The murine melanoma cell line, B16, was used to screen the activity of compounds comprising Formula (V). B16 cells were grown under standard conditions and exposed to several concentrations of each of the tested compounds.

[2] = system: murine melanoma cell line, B16; experiment: B16 cancer cell screening assay: inhibition of B16 proliferation; format: cell-based; settings: B16 cells exposed to several concentrations; for IC50: read-out: B16 Profile IC50
Procedure: as §1

[3] = Mus musculus, B16, inhibition of lactate dehydrogenase (LDH) release
[4] = Mus musculus, B16, inhibition of B16 proliferation
[5] = inhibition of B16 proliferation
[6] = inhibition of lactate dehydrogenase (LDH) release

| IC50 [1, 3] [µM] | IC50 [2, 4] [µM] | SMILES | other results |
| --- | --- | --- | --- |
| ~350 | 65 | COc1ccc2c(c1)CCN1[C@H](Cc3ccccc3)c3c(O)c(OC)cc(Br)c3C[C@@H]21 [M-R-0021] |  |
| > 700 | > 600 | COc1ccc2c(c1O)[C@H](Cc1ccccc1)N1CCc3cc4c(cc3[C@@H]1C2)OCO4 [M-R-0012] |  |
| > 320 | 38 | COc1ccc2c(c1)CCN1Cc3c(ccc(OC)c3O)C[C@@H]21 [M-R-0008] |  |
| 30 | 35 | COc1cc2c(cc1O)C[C@H]1c3cc4c(cc3CCN1[C@H]2c1ccccc1)OCO4 [M-R-0018] |  |
| 200 | 200 | COc1ccc2c(c1)CCN1[C@H]2Cc2cc(O)c(OC)cc2[C@H]1C1CCC1 [M-R-0002] |  |
| 40 | 27 | COc1ccc2c(c1)CCN1[C@H](c3ccccc3)c3c(O)c(OC)cc(Br)c3C[C@@H]21 [M-R-0023] |  |
| 700 | 75 | COc1ccc2c(c1)CCN1[C@H](Cc3ccccc3)c3c(ccc(OC)c3O)C[C@@H]21 [M-R-0016] |  |
| 700 |  | COc1cc2c(cc1O)[C@@H](Cc1ccccc1)N1CCc3cc4c(cc3[C@@H]1C2)OCO4 [M-R-0013] | IC50 [2, 5]: 75 µM |
| > 600 | > 600 | COc1ccc2c(c1)CCN1Cc3cc(OC)c(O)cc3C[C@@H]21 [M-R-0004] |  |
| 60 | 55 | COc1cc2c(cc1O)[C@H](Cc1ccccc1)N1CCc3cc4c(cc3[C@@H]1C2)OCO4 [M-R-0026] |  |
| 30 | 25 | COc1ccc2c(c1)CCN1[C@@H](c3ccccc3N)c3c(O)c(OC)cc(Br)c3C[C@@H]21 [M-R-0022] |  |
| 70 | 10 | COc1ccc2c(c1)CCN1[C@@H](c3ccccc3)c3cc(O)c(O)cc3C[C@@H]21 [M-R-0014] |  |
|  |  | COc1ccc2c(c1)CCN1Cc3cc(OC)c(O)cc3C[C@H]21 [M-R-0009] | B16 LDH IC50 [1, 6]: Inactive; B16 Profile IC50 [2, 5]: Inactive |
| 130 | 25 | COc1ccc2c(c1)CCN1[C@H](c3ccccc3)c3cc(O)c(O)cc3C[C@@H]21 [M-R-0015] |  |
| 150 | > 600 | COc1ccc2c(c1)CCN1[C@H]2Cc2ccc(OC)c(O)c2[C@H]1C1CCC1 [M-R-0003] |  |
| 70 | 120 | COc1cc2c(cc1OC)CN1CCc3cc4c(cc3[C@@H]1C2)OCO4 [M-R-0011] |  |
| 70 | 60 | COc1ccc2c(c1)CCN1[C@H](c3ccccc3)c3c(ccc(OC)c3O)C[C@@H]21 [M-R-0024] |  |
| 60 | 55 | COc1ccc2c(c1)CCN1[C@H](Cc3ccccc3)c3cc(OC)c(O)cc3C[C@@H]21 [M-R-0017] |  |
| 175 | > 600 | CC[C@@H]1c2c(ccc(OC)c2O)C[C@H]2c3ccc(OC)cc3CCN12 [M-R-0001] |  |
|  | > 400 | CCC[C@@H]1c2cc(OC)c(O)cc2C[C@H]2c3ccc(OC)cc3CCN12 [M-R-0007] | B16 LDH IC50 [1, 6]: Inactive |
| 30 | 35 | COc1ccc2c(c1)CCN1[C@H](c3ccccc3)c3cc(OC)c(O)cc3C[C@@H]21 [M-R-0005] |  |
| 50 | 45 | COc1cc2c(cc1O)C[C@H]1c3cc4c(cc3CCN1[C@@H]2c1ccccc1)OCO4 [M-R-0019] |  |
| 30 | 18 | COc1ccc2c(c1)CCN1[C@@H](c3ccccc3Br)c3c(O)c(OC)cc(Br)c3C[C@@H]21 [M-R-0020] |  |
|  | 300 | COc1ccc2c(c1)CCN1Cc3c(ccc(OC)c3O)C[C@H]21 [M-R-0010] | B16 LDH IC50 [1, 6]: Inactive |
|  |  | COc1cc2c(cc1O)[C@@H](Cc1ccccc1)N1CCc3cc4c(cc3[C@@H]1C2)OCO4 [M-R-0025] | IC50 [1, 6]: ~350 µM; IC50 [2, 5]: > 160 µM |
| 35 | 35 | COc1ccc2c(c1)CCN1[C@@H](c3ccccc3)c3cc(OC)c(O)cc3C[C@@H]21 [M-R-0006] |  |
